One may read the IC50 as the point on the concentration scale where inhibition reaches its midpoint.

For the assay, the target named is [35S]-TBPS binding, rat brain cortical membranes. The assay can be described thus: Steroid inhibition of [35S]-TBPS binding. The settings on record: 3 nM [35S]-TBPS, in the presence of 5 mM GABA. In short, it runs like this:
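In the presence of […], compounds (DMSO 0.5% final) competed with 3 nM [35S]-TBPS for Sprague-Dawley rat cortical membranes, pH 7.4 phosphate buffer, 90 min, room temperature. Filtration and scintillation counting; specific binding defined by […]; IC50 and maximal inhibition fitted per experiment, averaged as mean ± SEM.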
For `CCC[C@@]1(O)CC[C@H]2[C@H](CC[C@@H]3[C@@H]2CC[C@]2(C)[C@@H]([C@@H](C)Cn4nnc(C)n4)C(=O)C[C@@H]32)C1` [Example 364, (3R,5R,8R,9R,10S,13S,14S,17R)-3-hydroxy-13-methyl-17-((R)-1-(5-methyl-2H-tetrazol-2-yl)propan-2-yl)-3-propyltetradecahydro-1H-cyclopenta[a]phenanthren-16(2H)-one], the IC50 is 100 to 1000 nM.
As for `CCC[C@@]1(O)CC[C@H]2[C@H](CC[C@@H]3[C@@H]2CC[C@]2(C)[C@@H]([C@H](C)Cc4ccc(C#N)nc4)CC[C@@H]32)C1` [Example 400, 5-((R)-2-((3R,5R,8R,9R,10S,13R,14S,17R)-3-hydroxy-13-methyl-3-propylhexadecahydro-1H-cyclopenta[a]phenanthren-17-yl)propyl)picolinonitrile], the IC50 is < 100 nM.
For `CCOC[C@@]1(O)CC[C@H]2[C@H](CC[C@@H]3[C@@H]2CC[C@]2(C)[C@@H]([C@@H](C)Cc4cccc(C#N)c4)CC[C@@H]32)C1` [Example 402, 3-((S)-2-((3R,5R,8R,9R,10S,13R,14S,17R)-3-(ethoxymethyl)-3-hydroxy-13-methylhexadecahydro-1H-cyclopenta[a]phenanthren-17-yl)propyl)benzonitrile] the value was < 100 nM; for `CCOC[C@@]1(O)CC[C@H]2[C@H](CC[C@@H]3[C@@H]2CC[C@]2(C)[C@@H]([C@H](C)Cc4cccc(C#N)c4)CC[C@@H]32)C1` [Example 403, 3-((R)-2-((3R,5R,8R,9R,10S,13R,14S,17R)-3-(ethoxymethyl)-3-hydroxy-13-methylhexadecahydro-1H-cyclopenta[a]phenanthren-17-yl)propyl)benzonitrile], 100 to 1000 nM; for `COC[C@@]1(O)CC[C@H]2[C@H](CC[C@@H]3[C@@H]2CC[C@]2(C)[C@@H]([C@@H](C)Cc4ccc(C#N)nc4)CC[C@@H]32)C1` [Example 404, 5-((S)-2-((3R,5R,8R,9R,10S,13R,14S,17R)-3-hydroxy-3-(methoxymethyl)-13-methylhexadecahydro-1H-cyclopenta[a]phenanthren-17-yl)propyl)picolinonitrile], < 100 nM.
With `CCC[C@@]1(O)CC[C@H]2[C@H](CC[C@@H]3[C@@H]2CC[C@]2(C)[C@@H]([C@@H](C)Cc4ccc(C(F)(F)F)nc4)CC[C@@H]32)C1` [Example 410], the IC50 lay within 100 to 1000 nM.
For `CCC[C@@]1(O)CC[C@H]2[C@H](CC[C@@H]3[C@@H]2CC[C@]2(C)[C@@H]([C@H](C)Cc4ccc(C(F)(F)F)nc4)CC[C@@H]32)C1` [Example 411] the value was < 100 nM.
As for `CCOC[C@@]1(O)CC[C@H]2[C@H](CC[C@@H]3[C@@H]2CC[C@]2(C)[C@@H]([C@H](C)Cc4cccc(C#N)n4)CC[C@@H]32)C1` [Example 412], the IC50 fell in the range of 100 to 1000 nM.
For `CCOC[C@@]1(O)CC[C@H]2[C@H](CC[C@@H]3[C@@H]2CC[C@]2(C)[C@@H]([C@@H](C)Cc4ccc(C)nc4C#N)CC[C@@H]32)C1` [Example 414], the IC50 is < 100 nM.
Turning to `CCOC[C@@]1(O)CC[C@H]2[C@H](CC[C@@H]3[C@@H]2CC[C@]2(C)[C@@H]([C@H](C)Cc4ccc(C)nc4C#N)CC[C@@H]32)C1` [Example 415], the IC50 is < 100 nM.
Regarding `CCC[C@@]1(O)CC[C@H]2[C@H](CC[C@@H]3[C@@H]2CC[C@]2(C)[C@@H]([C@H](C)Cc4cnc(C)cn4)CC[C@@H]32)C1` [Example 418], the IC50 was 1000 to 10000 nM.
For the compound `COC[C@@]1(O)CC[C@H]2[C@H](CC[C@@H]3[C@@H]2CC[C@]2(C)[C@@H]([C@H](C)Cc4ccc(C(F)(F)F)nc4)CC[C@@H]32)C1` [Example 421], the IC50 lay in the range of 100 to 1000 nM.
For `COC[C@@]1(O)CC[C@H]2[C@H](CC[C@@H]3[C@@H]2CC[C@]2(C)[C@@H]([C@@H](C)Cc4cnc(C)cn4)CC[C@@H]32)C1` [Example 422] the value was < 100 nM.
Take `COC[C@@]1(O)CC[C@H]2[C@H](CC[C@@H]3[C@@H]2CC[C@]2(C)[C@@H]([C@H](C)Cc4cnc(C)cn4)CC[C@@H]32)C1` [Example 423]: the IC50 was 100 to 1000 nM.
For `COC[C@@]1(O)CC[C@H]2[C@H](CC[C@@H]3[C@@H]2CC[C@]2(C)[C@@H]([C@@H](C)Cc4nc(C)ccc4Cl)CC[C@@H]32)C1` [Example 424] the value was < 100 nM; for `COC[C@@]1(O)CC[C@H]2[C@H](CC[C@@H]3[C@@H]2CC[C@]2(C)[C@@H]([C@H](C)Cc4nc(C)ccc4Cl)CC[C@@H]32)C1` [Example 425], 1000 to 10000 nM.
With `C[C@H](Cc1ccc(C(F)(F)F)nc1)[C@H]1CC[C@H]2[C@@H]3CC[C@@H]4C[C@](C)(O)CC[C@]4(C)[C@H]3CC[C@]12C` [Example 426], the IC50 is 100 to 1000 nM.
In the case of `C[C@@H](Cc1ccc(C(F)(F)F)nc1)[C@H]1CC[C@H]2[C@@H]3CC[C@@H]4C[C@](C)(O)CC[C@]4(C)[C@H]3CC[C@]12C` [Example 427] it was < 100 nM; in that of `C[C@@H](Cc1ncc(CO)s1)[C@H]1CC[C@H]2[C@@H]3CC[C@@H]4C[C@](C)(O)CC[C@@H]4[C@H]3CC[C@]12C` [Example 428], < 100 nM; in that of `C[C@H](Cc1ncc(CO)s1)[C@H]1CC[C@H]2[C@@H]3CC[C@@H]4C[C@](C)(O)CC[C@@H]4[C@H]3CC[C@]12C` [Example 429], < 100 nM.
For the compound `Cc1cnc(C[C@@H](C)[C@H]2CC[C@H]3[C@@H]4CC[C@@H]5C[C@](C)(O)CC[C@@H]5[C@H]4CC[C@]23C)s1` [Example 431], the IC50 is 100 to 1000 nM.
In the case of `COc1cncc(C[C@H](C)[C@H]2CC[C@H]3[C@@H]4CC[C@@H]5C[C@](C)(O)CC[C@@H]5[C@H]4CC[C@]23C)c1` [Example 432] it was < 100 nM; in that of `COc1cncc(C[C@@H](C)[C@H]2CC[C@H]3[C@@H]4CC[C@@H]5C[C@](C)(O)CC[C@@H]5[C@H]4CC[C@]23C)c1` [Example 433], < 100 nM; in that of `Cc1cncc(C[C@@H](C)[C@H]2CC[C@H]3[C@@H]4CC[C@@H]5C[C@](C)(O)CC[C@@H]5[C@H]4CC[C@]23C)c1` [Example 434], 100 to 1000 nM.
For `C[C@@H](Cc1nccc(C#N)n1)[C@H]1CC[C@H]2[C@@H]3CC[C@@H]4C[C@](C)(O)CC[C@@H]4[C@H]3CC[C@]12C` [Example 435] the value was < 100 nM.
With `Cc1cnc(C[C@H](C)[C@H]2CC[C@H]3[C@@H]4CC[C@@H]5C[C@](C)(O)CC[C@@H]5[C@H]4CC[C@]23C)nc1` [Example 437], the IC50 was < 100 nM.
Take `Cc1cnc(C[C@@H](C)[C@H]2CC[C@H]3[C@@H]4CC[C@@H]5C[C@](C)(O)CC[C@@H]5[C@H]4CC[C@]23C)cn1` [Example 440]: the 50% inhibitory concentration (IC50) is < 100 nM.
In the case of `Cc1cncc(C[C@H](C)[C@H]2CC[C@H]3[C@@H]4CC[C@@H]5C[C@](C)(O)CC[C@@H]5[C@H]4CC[C@]23C)n1` [Example 441] it was < 100 nM; in that of `Cc1cncc(C[C@@H](C)[C@H]2CC[C@H]3[C@@H]4CC[C@@H]5C[C@](C)(O)CC[C@@H]5[C@H]4CC[C@]23C)n1` [Example 442], 100 to 1000 nM; in that of `C[C@H](Cc1ccc(C(F)(F)F)nc1)[C@H]1CC[C@H]2[C@@H]3CC[C@@H]4C[C@](C)(O)CC[C@@H]4[C@H]3CC[C@]12C` [Example 444], 100 to 1000 nM.
For `C[C@@H](Cc1nc(C(F)(F)F)cs1)[C@H]1CC[C@H]2[C@@H]3CC[C@@H]4C[C@](C)(O)CC[C@@H]4[C@H]3CC[C@]12C` [Example 449] the value was < 100 nM; for `C[C@H](Cc1nc(C(F)(F)F)cs1)[C@H]1CC[C@H]2[C@@H]3CC[C@@H]4C[C@](C)(O)CC[C@@H]4[C@H]3CC[C@]12C` [Example 450], 100 to 1000 nM; for `Cc1cc(C[C@@H](C)[C@H]2CC[C@H]3[C@@H]4CC[C@@H]5C[C@](C)(O)CC[C@@H]5[C@H]4CC[C@]23C)sn1` [Example 451], 100 to 1000 nM.
In the case of `CCOC[C@@]1(O)CC[C@H]2[C@H](CC[C@@H]3[C@@H]2CC[C@]2(C)[C@@H]([C@H](Nc4ccc(C#N)cc4C)C(F)(F)F)CC[C@@H]32)C1` [Example 487, 4-(((S)-1-((3R,5R,8R,9R,10S,13S,14S,17S)-3-(ethoxymethyl)-3-hydroxy-13-methylhexadecahydro-1H-cyclopenta[a]phenanthren-17-yl)-2,2,2-trifluoroethyl)amino)-3-methylbenzonitrile] it was 100 to 1000 nM; in that of `CCOC[C@@]1(O)CC[C@H]2[C@H](CC[C@@H]3[C@@H]2CC[C@]2(C)[C@@H]([C@@H](Nc4ccc(C#N)cc4C)C(F)(F)F)CC[C@@H]32)C1` [Example 488, 4-(((R)-1-((3R,5R,8R,9R,10S,13S,14S,17S)-3-(ethoxymethyl)-3-hydroxy-13-methylhexadecahydro-1H-cyclopenta[a]phenanthren-17-yl)-2,2,2-trifluoroethyl)amino)-3-methylbenzonitrile], 1000 to 10000 nM.

The values above are taken from patent US20230322846A9, “NEUROACTIVE STEROIDS AND THEIR METHODS OF USE” (SAGE THERAPEUTICS, INC., priority 2018, published 2023).
